Source: patent US5409933A, “Quinoline derivatives and processes for preparing the same” (priority 1993, dated 1995)
Counter-ions that a name gives are not always drawn. Like-named read-outs stand apart in the source and are kept apart here.

Key:
Assay in all cases: In Vitro Anti-Bacterial Activity Test (MIC, agar dilution)
Type in all cases: cell-based
[1] = test system: Enterobacter cloacae 1321E
Procedure, shortened: (§1)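 Agar-incorporation MIC: Muller-Hinton medium, 10^7 C.F.U./ml inoculum, 18 h incubation at 37° C., growth checked by eye; ciprofloxacin reference.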

Enterobacter cloacae P99 = details: Enterobacter cloacae, P99, 18 h
Procedure, shortened: (§2)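 Strains were inoculated at 10^7 C.F.U./ml onto Mueller-Hinton agar containing serial compound dilutions and incubated 18 hours at 37° C. The minimum inhibitory concentration was read from growth, with ciprofloxacin run as the reference antibacterial.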

Escherichia coli 078 = test system: Escherichia coli 078
Procedure, shortened: as §1

Escherichia coli 1507E = details: Muller-Hinton agar, 37° C.
Procedure, shortened: as §1

Escherichia coli DC0 = details: Muller-Hinton agar, 37° C., 18 hours, read-out: MIC
Procedure, shortened: as §1

Escherichia coli DC2 = details: Escherichia coli, DC2, 18 h
Procedure, shortened: as §1

Escherichia coli TEM = details: Escherichia coli, 18 h, Muller-Hinton agar, 37° C.
Procedure, shortened: as §2

[2] = test system: Klebsiella aerogenes 1522E; details: Klebsiella aerogenes, 1522E, 18 h, Klebsiella aerogenes 1522E; Muller-Hinton agar, 37° C., 18 hours; read-out: MIC
Procedure, shortened: as §1

Klebsiella oxytoca 1082E = test system: Klebsiella oxytoca 1082E
Procedure, shortened: as §1

[3] = test system: Pseudomonas aeruginosa 1592E; details: Muller-Hinton agar, 37° C., 18 hours, read-out: MIC
Procedure, shortened: as §1

[4] = test system: Pseudomonas aeruginosa 1771M; details: Pseudomonas aeruginosa, 1771M, 18 h, Muller-Hinton agar, 37° C.
Procedure, shortened: as §1

[5] = test system: Pseudomonas aeruginosa 1771
Procedure, shortened: as §1

[6] = test system: Pseudomonas aeruginosa 9027; details: Muller-Hinton agar, 37° C., 18 hours, read-out: MIC
Procedure, shortened: as §1

Salmonella typhimurium = details: Salmonella enterica; Salmonella typhimurium; Muller-Hinton agar, 37° C., 18 hours; read-out: MIC
Procedure, shortened: as §1

[7] = test system: Staphylococcus aureus 285; details: Staphylococcus aureus, 285, 18 h, Staphylococcus aureus 285; Muller-Hinton agar, 37° C., 18 hours; read-out: MIC
Procedure, shortened: as §1

[8] = test system: Staphylococcus aureus 503; details: Staphylococcus aureus 503; Muller-Hinton agar, 37° C., 18 hours; read-out: MIC
Procedure, shortened: as §1

[9] = test system: Staphylococcus aureus SG511; details: Staphylococcus aureus SG511; Muller-Hinton agar, 37° C., 18 hours; read-out: MIC
Procedure, shortened: as §1

[10] = test system: Streptococcus faecium MD8b; details: Enterococcus faecium, Muller-Hinton agar, 37° C., 18 hours, read-out: MIC
Procedure, shortened: as §1

[11] = test system: Streptococcus pyogenes 308A; details: Muller-Hinton agar, 37° C., 18 hours, read-out: MIC
Procedure, shortened: as §1

[12] = test system: Streptococcus pyogenes 77A
Procedure, shortened: as §1

[13] = Enterobacter cloacae 1321E, Muller-Hinton agar, 37° C., 18 hours, read-out: MIC
[14] = Escherichia coli 078, Muller-Hinton agar, 37° C., 18 hours, read-out: MIC
[15] = Klebsiella oxytoca 1082E, Muller-Hinton agar, 37° C., 18 hours, read-out: MIC
[16] = Pseudomonas aeruginosa 1771, Muller-Hinton agar, 37° C., 18 hours, read-out: MIC
[17] = Streptococcus pyogenes 77A, Muller-Hinton agar, 37° C., 18 hours, read-out: MIC
[18] = Klebsiella oxytoca, 1082E, 18 h

| SMILES | MIC [1, 13] [µg/mL] | MIC (Enterobacter cloacae P99) [µg/mL] | MIC (Escherichia coli 1507E; Escherichia coli, 1507E, 18 h) [µg/mL] | MIC (Escherichia coli DC0) [µg/mL] | MIC (Escherichia coli DC2) [µg/mL] | MIC (Escherichia coli TEM) [µg/mL] | MIC [2] [µg/mL] | MIC (Klebsiella oxytoca 1082E; [15]) [µg/mL] | MIC [3] [µg/mL] | MIC [4] [µg/mL] | MIC [5, 16] [µg/mL] | MIC [6] [µg/mL] | MIC (Salmonella typhimurium) [µg/mL] | MIC [7] [µg/mL] | MIC [8] [µg/mL] | MIC [9] [µg/mL] | MIC [10] [µg/mL] | MIC [11] [µg/mL] | MIC [12, 17] [µg/mL] | MIC (Escherichia coli 078; Escherichia coli, 078, 18 h) [µg/mL] | other results |
| --- | --- | --- | --- | --- | --- | --- | --- | --- | --- | --- | --- | --- | --- | --- | --- | --- | --- | --- | --- | --- | --- |
| CCOC(=O)CC(=O)c1cn(C2CC2)c2c(Cl)c(N3CC[C@@H](N)C3)c(F)cc2c1=O [Example 26, 1-cyclopropyl-6-fluoro-8-chloro-7-(3-3R-aminopyrrolidin-1-yl)-3-(2-ethoxycarbonylacetyl)-1,4-dihydro-4-oxoquinoline hydrochloride] | 0.004 | 0.013 | 0.025 | 0.195 | 0.098 | 0.013 | 0.049 | < 0.002 | 0.781 | 0.098 | 0.781 | 0.781 | 0.007 | 0.098 | 0.098 | 0.098 | 0.781 | 1.56 | – | – | MIC (Escherichia coli 078; [14]): 0.004 µg/mL; MIC ([12]; Streptococcus pyogenes, 77A, 18 h): 0.781 µg/mL |
| CCOC(=O)CC(=O)c1cn(C2CC2)c2c(Cl)c(N3CC[C@H](N)C3)c(F)cc2c1=O [Example 27, 1-cyclopropyl-6-fluoro-8-chloro-7-(3-3S-aminopyrrolidin-1-yl)-3-(2-ethoxycarbonylacetyl)-1,4-dihydro-4-oxoquinoline hydrochloride] | < 0.002 | 0.004 | 0.013 | 0.098 | 0.013 | < 0.002 | 0.013 | < 0.002 | 0.195 | 0.098 | 0.195 | 0.391 | < 0.002 | 0.049 | 0.049 | 0.098 | 0.391 | 0.781 | 0.391 | – | MIC (Escherichia coli 078; [14]): 0.004 µg/mL |
| CCOC(=O)C(C(=O)OCC)C(=O)c1cn(C2CC2)c2c(Cl)c(N3CC=C(CNC)C3)c(F)cc2c1=O [Example 28, 1-cyclopropyl-6-fluoro-8-chloro-7-(3-methylaminomethyl-2,5-dihydropyrrol-1-yl)-3-(2,2-diethoxycarbonylacetyl)-1,4-dihydro-4-oxoquinoline hydrochloride] | < 0.002 | < 0.002 | 0.013 | 0.195 | 0.049 | 0.013 | 0.013 | 0.007 | 0.391 | 0.195 | 0.781 | 0.781 | 0.013 | 0.007 | < 0.002 | 0.004 | 0.049 | 0.098 | 0.049 | – | MIC (Escherichia coli 078; [14]): < 0.002 µg/mL |
| CCOC(=O)CC(=O)c1cn(C2CC2)c2c(Cl)c(N3CC=C(CNC)C3)c(F)cc2c1=O [Example 29, 1-cyclopropyl-6-fluoro-8-chloro-7-(3-methylaminomethyl-2,5-dihydropyrrol-1-yl)-3-(2-ethoxycarbonylacetyl)-1,4-dihydro-4-oxoquinoline hydrochloride] | – | 0.013 | 0.049 | 0.195 | 0.098 | 0.013 | 0.013 | 0.049 | 0.781 | 0.391 | 1.56 | 1.56 | 0.391 | 0.049 | 0.013 | 0.013 | 0.098 | 0.391 | 0.098 | 0.013 | MIC ([1]; Enterobacter cloacae, 1321E, 18 h): 0.007 µg/mL |
| CCn1cc(C(=O)C[N+](=O)[O-])c(=O)c2cc(F)c(N3CCC(N)C3)c(F)c21 (centres unmarked) [Example 30, 1-ethyl-6,8-difluoro-7-(3-aminopyrrolidin-1-yl)-3-(2-nitroacetyl)-1,4-dihydro-4-oxoquinoline hydrochloride] | 0.049 | 0.049 | 0.391 | 0.781 | 0.195 | 0.391 | 0.098 | – | 0.781 | 0.195 | – | 0.781 | 0.781 | 0.195 | 0.195 | 0.195 | 1.56 | 1.56 | 1.56 | 0.049 | MIC (Klebsiella oxytoca 1082E; [18]): 0.391 µg/mL; MIC ([5]; Pseudomonas aeruginosa, 1771, 18 h): 0.391 µg/mL |
| NC1CCN(c2c(F)cc3c(=O)c(C(=O)C[N+](=O)[O-])cn(CCF)c3c2F)C1 (centres unmarked) [Example 31, 1-(2-fluoroethyl)-6,8-difluoro-7-(3-aminopyrrolidin-1-yl)-3-(2-nitroacetyl)-1,4-dihydro-4-oxoquinoline hydrochloride] | 0.049 | 0.098 | – | 0.195 | 0.391 | 0.195 | 0.098 | – | 0.781 | 0.391 | 0.781 | 0.781 | 0.391 | 0.391 | 0.391 | 0.781 | 0.781 | 3.12 | 1.56 | 0.391 | MIC (Escherichia coli 1507E; 18 hours, read-out: MIC): 0.198 µg/mL; MIC (Klebsiella oxytoca 1082E; [18]): 0.195 µg/mL |
| CS(=O)(=O)CC(=O)c1cn(C2CC2)c2c(Cl)c(N3CCC(N)C3)c(F)cc2c1=O (centres unmarked) [Example 33, 1-cyclopropyl-6-fluoro-8-chloro-7-(3-aminopyrrolidin-1-yl)-3-(2-methanesulfonylacetyl)-1,4-dihydro-4-oxoquinoline hydrochloride] | 0.098 | 0.195 | 0.195 | 0.195 | 0.098 | 0.098 | 0.391 | 0.391 | 1.56 | 0.781 | 1.56 | 1.56 | 0.781 | 1.56 | 0.781 | 1.56 | 6.25 | 3.12 | 3.12 | 0.195 | – |
